pKd, pKi: −log10 of the molar value.
Assays:
[1] = Ability to inhibit [3H]-SCH- 23390 binding to Dopamine receptor D1 of canine striatal membranes
[2] = as above; remark: listed apart in the source

| Compound | pKi [1] | pKd [2] |
| --- | --- | --- |
| CN1CCc2cc(I)c(O)cc2[C@@H](c2ccc(N=[N+]=[N-])cc2)C1 | 7.55 |  |
| CN1CCc2cc(I)c(O)cc2[C@H](c2ccc(N=[N+]=[N-])cc2)C1 |  | 9.55 |

— BindingDB's records for doi:10.1021/jm00164a009 (Research Biochemicals, 1990)
